“Also recorded” adds a separate entry of the source. Read-outs that look alike come from different tables or passages of the source. Some results are limits rather than exact numbers.

We go through two compounds from patent US20070231828A1, “Methods of predicting behavior of cancers” (Johns Hopkins University, priority 2003, published 2007).

The test system of experiment [1] is AT6.3 subcutaneous tumors.
In experiment [2] the test system is human prostate cancer cell lines. Briefly: Quantitative RT-PCR of transcripts. The format is cell-based. The text has this:
(§1) Amplification of Hh pathway components was normalized in qRT-PCR experiments to that of endogenous phosphoglycerate kinase in each sample. Oligonucleotide primers used in quantitative reeal-time and conventional amplification of reverse transcribed mRNA (RT-PCR) are shown in Table 4.

The subject of a further experiment is PC3 xenograft tumors. Conditions: 50 mg/kg daily s.c. The procedure: (§2) CWR22RV1 (n=14) and PC3tumor xenografts (n=20) were grown by injecting 0.1 ml of Hanks Balanced Salt Solution and Matrigel (1:1) (Beckton Dickinson, Franklin Lakes, N.J.) containing 2.5×10^6 cells subcutaneously at each of two locations (right anterior and posterior flank) per athymic mouse. […] Animals were euthanized and tumors harvested for Ki-67 staining. […] Mice were observed daily for distress and experiments were carried out according to approved institutional protocols. Individual tumor volumes were plotted and regression curves were generated using analysis software to determine individual tumor growth rates.

For a further experiment, the system named is 22RV1 xenograft tumors. Conditions: 50 mg/kg daily s.c. The procedure: as §2
Experiment [3] relates to AT6.3 cells. Briefly: Quantitative RT-PCR of transcripts. The format is cell-based, rat.
Excerpt: as §1

For another experiment, the system named is AT2.1-GLI cells. The experiment can be described thus: In vitro Matrigel invasion assay. The format is cell-based, rat. The conditions noted are these: 3 μM pre-treatment 24 hours. The source says: (§3) Cells reaching the lower chamber were counted according to the manufacturer's protocol. Results were normalized to viable cell mass assayed as described above.

The subject of experiment [4] is AT6.3 cells. The experiment can be described thus: In vitro Matrigel invasion assay. The format is cell-based, rat. The conditions noted are these: 3 μM pre-treatment 24 hours, normalized to viable cell mass.
Excerpt: as §3

The subject of experiment [5] is AT2.1 subcutaneous tumors. The experiment can be described thus: Dunning rat prostate carcinoma xenografts in athymic mice. The format is in vivo. The conditions noted are these: s.c.
In the next experiment the test system is 22RV1 cells. Briefly: In vitro Matrigel invasion assay. The format is cell-based, human.
Excerpt: as §3

In another experiment the test system is 22RV1-GLI cells. The experiment can be described thus: In vitro Matrigel invasion assay. The format is cell-based, human.
Excerpt: as §3

A further experiment concerns prostate epithelium. The experiment can be described thus: Prostate regeneration in castrated mice. The format is in vivo, C57B16/J mice. The conditions noted are these: castrates. The text has this:
Prostates were collected, weighed, and processed for histology.

Consider `CC1=C2C[C@H]3[C@@H](CC=C4C[C@@H](O)CC[C@@]43C)[C@@H]2CC[C@]12O[C@@H]1C[C@H](C)CN[C@H]1[C@H]2C` [cyclopamine], for which the “Growth rate (% tumor volume/day)” value in [1] (i.p. 10 mg/kg) worked out at 9.2 ± 2.4 % tumor volume/day; in [1] (i.p. 50 mg/kg), 4.9 ± 1.0 % tumor volume/day. Moreover, the “Median Survival” value is reported as 19 days in experiment [1] (i.p. 10 mg/kg/day), “No death” in experiment [1] (i.p. 50 mg/kg), “No tumors” in experiment [1] (s.c. 50 mg/kg) and “No tumors” in experiment [5]. Besides, the figures for the metastasis result in experiment [1] (i.p. 10 mg/kg/day) and in [1] (i.p. 50 mg/kg/day) were “inhibited metastasis” and “blocked metastasis”, respectively. Besides, the “time by which all animals were dead” value in experiment [1] (i.p. 10 mg/kg/day) was at most 26 days. In addition, the death entry in experiment [1] (i.p. 50 mg/kg/day, 50 day treatment period) is reported as “prevented death”. For the same compound, the “expression of transcripts encoding c-myc” value in experiment [2] is “reduced expression”. The “expression of transcripts encoding cyclin D1” value in experiment [2] is reported as “reduced expression”. In experiment [2], the “transcription of the gene encoding Nestin” value is recorded as “suppressed transcription”. Besides, the “expression of E-cadherin transcripts” value (in experiment [2] (human metastasis-derived prostate cancer cell lines); in the experiment on AT6.3 cells [3] (rat metastasis-derived prostate cancer cell line)) was “increased expression” in each case. Besides, the “expression of Snail transcripts” value in experiment [2] (human prostate cancer cell lines) was “decreased expression”. In addition, the “expression of the metastasis suppressor Ndrgl” value in experiment [2] (human prostate cancer cells) was “increased expression”. Besides, the “time to complete regression of the tumors” value in the experiment on PC3 xenograft tumors and in the experiment with 22RV1 xenograft tumors was 20 to 24 days each time. In the experiment with AT6.3 cells [3] (AT6.3 cells), the Snail expression result was “suppressed”. Besides, the results for the invasiveness result in the experiment with AT2.1-GLI cells, in the experiment on 22RV1 cells and in the experiment with 22RV1-GLI cells were “did not reduce the invasiveness”, “blocked” and “not affected”, respectively. The reduction of invasiveness entry with AT6.3 cells [4] is reported as “approximately nine-fold”. In the experiment on prostate epithelium (DHT plus cyclopamine 50 mg/kg/day s.c. for 10 days), the prostate regeneration entry is reported as “abolished prostate regeneration; also recorded: completely blocked prostate regeneration”.
Regarding `C[C@]12CCC(=O)C[C@@H]1CC[C@@H]1[C@@H]2CC[C@]2(C)[C@@H](O)CC[C@@H]12` [dihydrotestosterone], the prostate regeneration entry in the experiment with prostate epithelium (50 mg/kg/d for ten days after seven days of androgen withdrawal) is reported as “re-growth of prostate of nearly normal size”.
